In patent US12145944B2, “Imidazopyrimidines as EED inhibitors and the use thereof” (THE REGENTS OF THE UNIVERSITY OF MICHIGAN, priority 2019, dated 2024):
Like-named read-outs stand apart in the source and are kept apart here.

Experiments:
[1] = tested on: KARPAS422 human B cell lymphoma cell; experiment: Cell proliferation, KARPAS422, 7 day treatment (WST-8); format: cell-based; settings: Homo sapiens, KARPAS-422, 168 h, 7 day treatment, read-out: Karpas Cell line
Summary of the method: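 KARPAS422 cells seeded at 2 000-3 000 cells/well and exposed to serially diluted compounds for 7 days at 37 °C, 5% CO2. Growth measured by WST-8 (1-4 h, absorbance 450 nm). Readings normalized to DMSO-treated cells; IC50 from nonlinear regression.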

Pfeiffer cell line = experiment: Anti-proliferative activity, Pfeiffer cell line, 7 day treatment; format: cell-based; settings: Homo sapiens, 168 h, 7 day treatment, read-out: Pfeiffer Cell line
Summary of the method: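 Cells seeded at 2 000-3 000 per well were treated with serially diluted compounds for 7 days at 37° C, 5% CO2. Growth was measured by WST-8 assay read at 450 nm after 1-4 h reagent incubation. Readings were normalized to DMSO-treated cells and IC50 values derived by nonlinear regression.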

[2] = anti-proliferative IC50, Karpas 422 cell line
[3] = anti-proliferative IC50, Pfeiffer cell line
[4] = anti-proliferative IC50 class, Karpas 422 cell line
[5] = anti-proliferative IC50 class, Pfeiffer cell line

Compound	IC50 [1, 2]	IC50 (Pfeiffer cell line; [3])	IC50 [1, 4]	IC50 (Pfeiffer cell line; [5])
Cc1ccc2c(n1)COC(=O)c1ncn3c(NCc4c(F)ccc5c4CCO5)ncc-2c13 [compound 18, 12-(((5-fluoro-2,3-dihydrobenzofuran-4-yl)methyl)amino)-7-methyl-3H,5H-4-oxa-2,6,11,12a-tetraazabenzo[4,5]cycloocta[1,2,3-cd]inden-3-one]	15.3 nM	0.73 nM		
Cc1ccc2c(n1)CCN(CC(F)(F)F)C(=O)c1ncn3c(NCc4c(F)ccc5c4CCO5)ncc-2c13 [E 30, 13-(((5-fluoro-2,3-dihydrobenzofuran-4-yl)methyl)amino)-8-methyl-4-(2,2,2-trifluoroethyl)-5,6-dihydro-2,4,7,12,13a-pentaazabenzo[4,5]cyclonona[1,2,3-cd]inden-3(4H)-one]			10 to 100 nM	10 to 100 nM
O=C1c2ncn3c(NCc4c(F)ccc5c4CCO5)ncc(c23)-c2cnc(C(F)(F)F)cc2CN1CC(F)(F)F [compound 84, 12-(((5-fluoro-2,3-dihydrobenzofuran-4-yl)methyl)amino)-4-(2,2,2-trifluoroethyl)-7-(trifluoromethyl)-4,5-dihydro-3H-2,4,8,11,12a-pentaazabenzo[4,5]cycloocta[1,2,3-cd]inden-3-one]	1.48 nM	0.048 nM		
CN1Cc2ccc(C(F)(F)F)nc2-c2cnc(NCc3c(F)ccc4c3CCO4)n3cnc(c23)C1=O [compound 39, 12-(((5-fluoro-2,3-dihydrobenzofuran-4-yl)methyl)amino)-4-methyl-8-(trifluoromethyl)-4,5-dihydro-3H-2,4,9,11,12a-pentaazabenzo[4,5]cycloocta[1,2,3-cd]inden-3-one]	> 100 nM	22.7 nM		
CCc1cnc2n1Cc1nc(C)ccc1-c1cnc(NCc3c(F)ccc4c3CCO4)n3cnc-2c13 [E 38, 5-ethyl-N-((5-fluoro-2,3-dihydrobenzofuran-4-yl)methyl)-8-methyl-6H-2,3,5a,7,12,13a-hexaazabenzo[4,5]cyclopenta[7,8]cycloocta[1,2,3-cd]inden-13-amine]			10 to 100 nM	10 to 100 nM
Fc1ccc2c(c1CNc1ncc3c4c(ncn14)-c1nccn1Cc1nc(C(F)(F)F)ccc1-3)CCO2 [E 32, N-((5-fluoro-2,3-dihydrobenzofuran-4-yl)methyl)-8-(trifluoromethyl)-6H-2,3,5a,7,12,13a-hexaazabenzo[4,5]cyclopenta[7,8]cycloocta[1,2,3-cd]inden-13-amine]			10 to 100 nM	< 10 nM
[2H]C([2H])(Nc1ncc2c3c(ncn13)C(=O)N(CC(F)(F)F)Cc1cc(C(=O)N(C)C)ccc1-2)c1c(F)ccc2c1CCO2 [E 24, 12-(((5-fluoro-2,3-dihydrobenzofuran-4-yl)methyl-d2)amino)-N,N-dimethyl-3-oxo-4-(2,2,2-trifluoroethyl)-4,5-dihydro-3H-2,4,11,12a-tetraazabenzo[4,5]cycloocta[1,2,3-cd]indene-7-carboxamide]			10 to 100 nM	10 to 100 nM
O=C1c2ncn3c(NCc4c(F)ccc5c4CCO5)ncc(c23)-c2sc(C(F)(F)F)nc2CN1C1CC1 [compound 91, 4-cyclopropyl-11-(((5-fluoro-2,3-dihydrobenzofuran-4-yl)methyl)amino)-7-(trifluoromethyl)-4,5-dihydro-3H-8-thia-2,4,6,10,11a-pentaazacyclopenta[4,5]cycloocta[1,2,3-cd]inden-3-one]	5.23 nM	0.043 nM		
O=C1NCc2ccc(C(F)(F)F)cc2-c2cnc(NCc3c(F)ccc4c3CCO4)n3cnc1c23 [compound 26, 12-(((5-fluoro-2,3-dihydrobenzofuran-4-yl)methyl)amino)-8-(trifluoromethyl)-4,5-dihydro-3H-2,4,11,12a-tetraazabenzo[4,5]cycloocta[1,2,3-cd]inden-3-one]	41.4 nM	32.9 nM		
Cc1ccc2c(n1)Cn1c(C)cnc1-c1ncn3c(NCc4c(F)ccc5c4CCO5)ncc-2c13 [E 18, N-((5-fluoro-2,3-dihydrobenzofuran-4-yl)methyl)-5,8-dimethyl-6H-2,3,5a,7,12,13a-hexaazabenzo[4,5]cyclopenta[7,8]cycloocta[1,2,3-cd]inden-13-amine]			10 to 100 nM	< 10 nM
O=C1c2ncn3c(NCc4c(F)ccc5c4CCO5)ncc(c23)-c2ccc(C(F)(F)F)nc2CN1CC1(O)CC1 [compound 44, 12-(((5-fluoro-2,3-dihydrobenzofuran-4-yl)methyl)amino)-4-((1-hydroxycyclopropyl)methyl)-7-(trifluoromethyl)-4,5-dihydro-3H-2,4,6,11,12a-pentaazabenzo[4,5]cycloocta[1,2,3-cd]inden-3-one]	2.44 nM	1.03 nM		
O=C1NCc2ccccc2-c2cnc(NCc3c(F)ccc4c3CCO4)n3cnc1c23 [compound 15, 12-(((5-fluoro-2,3-dihydrobenzofuran-4-yl)methyl)amino)-4,5-dihydro-3H-2,4,11,12a-tetraazabenzo[4,5]cycloocta[1,2,3-cd]inden-3-one]	4.36 nM	1.25 nM		
Cc1ccc2c(n1)CNC(=O)c1ncn3c(NCc4c(F)ccc5c4CCO5)ncc-2c13 [compound 21, 12-(((5-fluoro-2,3-dihydrobenzofuran-4-yl)methyl)amino)-7-methyl-4,5-dihydro-3H-2,4,6,11,12a-pentaazabenzo[4,5]cycloocta[1,2,3-cd]inden-3-one]	14.9 nM	0.61 nM		
Cc1ccc2c(n1)CN(CC(F)F)C(=O)c1ncn3c(NCc4c(F)ccc5c4CCO5)ncc-2c13 [E 6, 4-(2,2-difluoroethyl)-12-(((5-fluoro-2,3-dihydrobenzofuran-4-yl)methyl)amino)-7-methyl-4,5-dihydro-3H-2,4,6,11,12a-pentaazabenzo[4,5]cycloocta[1,2,3-cd]inden-3-one]			< 10 nM	< 10 nM
O=C1NCc2ncccc2-c2cnc(NCc3c(F)ccc4c3CCO4)n3cnc1c23 [Cpd. No. 16, 12-(((5-fluoro-2,3-dihydrobenzofuran-4-yl)methyl)amino)-4,5-dihydro-3H-2,4,6,11,12a-pentaazabenzo[4,5]cycloocta[1,2,3-cd]inden-3-one]	14.7 nM	3.39 nM		
O=C1c2ncn3c(NCc4c(F)ccc5c4CCO5)ncc(c23)-c2ccc(CC3COCCO3)nc2CN1CC(F)(F)F (stereo not shown) [E 49, 7-((1,4-dioxan-2-yl)methyl)-12-(((5-fluoro-2,3-dihydrobenzofuran-4-yl)methyl)amino)-4-(2,2,2-trifluoroethyl)-4,5-dihydro-3H-2,4,6,11,12a-pentaazabenzo[4,5]cycloocta[1,2,3-cd]inden-3-one]			< 10 nM	< 10 nM
O=C1OCc2cnc(C(F)(F)F)cc2-c2cnc(NCc3c(F)ccc4c3CCO4)n3cnc1c23 [compound 32, 12-(((5-fluoro-2,3-dihydrobenzofuran-4-yl)methyl)amino)-8-(trifluoromethyl)-3H,5H-4-oxa-2,7,11,12a-tetraazabenzo[4,5]cycloocta[1,2,3-cd]inden-3-one]	84.4 nM	11.6 nM		
Cc1ccc2c(n1)CN(C(C)C)C(=O)c1ncn3c(NCc4c(F)ccc5c4CCO5)ncc-2c13 [E 1, 12-(((5-fluoro-2,3-dihydrobenzofuran-4-yl)methyl)amino)-4-isopropyl-7-methyl-4,5-dihydro-3H-2,4,6,11,12a-pentaazabenzo[4,5]cycloocta[1,2,3-cd]inden-3-one]			< 10 nM	< 10 nM
Cc1cc2c(cn1)-c1cnc(NCc3c(F)ccc4c3CCO4)n3cnc(c13)C(=O)N(C(C)C)C2 [E 2, 12-(((5-fluoro-2,3-dihydrobenzofuran-4-yl)methyl)amino)-4-isopropyl-7-methyl-4,5-dihydro-3H-2,4,8,11,12a-pentaazabenzo[4,5]cycloocta[1,2,3-cd]inden-3-one]			< 10 nM	< 10 nM
CC1CC(N2Cc3cc(C(F)(F)F)ccc3-c3cnc(NCc4c(F)ccc5c4CCO5)n4cnc(c34)C2=O)CC(C)O1 (stereo not shown) [compound 93, 4-(2,6-dimethyltetrahydro-2H-pyran-4-yl)-12-(((5-fluoro-2,3-dihydrobenzofuran-4-yl)methyl)amino)-7-(trifluoromethyl)-4,5-dihydro-3H-2,4,11,12a-tetraazabenzo [4,5]cycloocta[1,2,3-cd]inden-3-one]	3.71 nM	0.55 nM		
CC(C)(C)c1cc2c(cn1)-c1cnc(NCc3c(F)ccc4c3CCO4)n3cnc(c13)C(=O)N(CC(F)(F)F)C2 [E 46, 7-(tert-butyl)-12-(((5-fluoro-2,3-dihydrobenzofuran-4-yl)methyl)amino)-4-(2,2,2-trifluoroethyl)-4,5-dihydro-3H-2,4,8,11,12a-pentaazabenzo[4,5]cycloocta[1,2,3-cd]inden-3-one]			< 10 nM	< 10 nM
CC(C)c1ccc2c(n1)CN(CC(F)F)C(=O)c1ncn3c(NCc4c(F)ccc5c4CCO5)ncc-2c13 [E 47, 4-(2,2-difluoroethyl)-12-(((5-fluoro-2,3-dihydrobenzofuran-4-yl)methyl)amino)-7-isopropyl-4,5-dihydro-3H-2,4,6,11,12a-pentaazabenzo[4,5]cycloocta[1,2,3-cd]inden-3-one]			< 10 nM	< 10 nM
O=C1OCc2ncccc2-c2cnc(NCc3c(F)ccc4occc34)n3cnc1c23 [compound 10, 12-(((5-fluorobenzofuran-4-yl)methyl)amino)-3H,5H-4-oxa-2,6,11,12a-tetraazabenzo[4,5]cycloocta[1,2,3-cd]inden-3-one]	15.8 nM	2.93 nM		
